According to patent US11717554B2, “Method for preventing or treating hangover symptom(s) associated with consumption of alcoholic beverage(s)” (MAX R&D LLC, priority 2019, dated 2023):
Where two headings read alike, the source gives them in different places.

Tests used:
acetaldehyde = assay: MTCG in urine of rats treated with ethanol, disulfiram and CG or CbG; conditions: for oral bioavailability (in words): inferred from urinary MTCG excretion
Protocol: In the first study, rats were administered disulfiram, an ALDH inhibitor and alcohol deterrent drug used to inhibit the metabolism of ethanol at the acetaldehyde stage, thus producing an adverse reaction that discourages further alcohol drinking (reviewed in Wikipedia, 2017). Treatment of rats with disulfiram causes a buildup of acetaldehyde in blood (Nagasawa et al, 1978). The rats were then administered CbG, orally, to determine whether CbG, following its in vivo conversion to CG, can sequester the acetaldehyde produced in the disulfiram-treated rats to a product that is excreted into the urine. Note that CbG in vivo may be reduced 2 CG. The product expected from this sequestration reaction is MTCG (vide supra). The MTCG in rat urine, collected over 24 hours following the ethanol dose, was quantitatively analyzed by LC/MS.

isoamyl aldehyde = conditions: for BTCG excreted in urine: LC/MS
Text: In the second study, isoamyl alcohol replaced ethanol, and cyanamide, another clinically-used ALDH inhibitor (Tottmar et al., 1977), replaced disulfiram to block the further metabolism of isoamyl aldehyde derived from isoamyl alcohol (FIG. 3). Isoamyl alcohol is the most abundant small, branched-chain alcohol congener present in bourbon (Damrau and Liddy, 1960). […] The excreted product in urine here would be 2-isoobutylthiazolidine-4-carbonylglycine, viz., BTCG (FIG. 1). The urines were analyzed for BTCG by LC/MS as above.

[1] = Urinary excretion and metabolic fate of MTCA in rats; type: in vivo
Text: We examined cysteine (the natural “L’ form), a semi-essential sulfhydryl amino acid, as a sequestering agent for acetaldehyde (Nagasawa et al., 1975). Indeed, cysteine readily condensed with acetaldehyde in aqueous solution to form a cyclic product, 2-methylthiazolidine-4 carboxylic acid (MTCA). […] We, therefore, prepared and administered radio-labeled MTCA (^14C at the 2-position) to a rat to follow its metabolic course (Nagasawa et al., 1984).

[2] = Stability of MTCG in 0.1 N HCl; type: physicochemical
Text: Although identified in urine, the long-term stability of MTCG in urine is still a question. MTCG is found to be stable in 0.1 N HCl, so we plan to collect the rat urine in acidified containers on ice. Presence of MTCG will be determined using a HPLC/MS method to obtain quantitative data of MTCG in rat urine.

[3] = rat biological fluids; cited from earlier work

N[C@@H](CS)C(=O)NCC(=O)O [CG, cysteinylglycine]
urinary MTCG excretion, CG group (Group A) compared with disulfiram and ethanol only (Group C) (acetaldehyde; rats, disulfiram and ethanol, 24 hour urine): not statistically significant
oral bioavailability (in words) (acetaldehyde; rats): poor oral bioavailability

NC(CSSCC(N)C(=O)NCC(=O)O)C(=O)NCC(=O)O (centres unmarked) [CbG, cystinyl-bis-glycine]
urinary excretion of MTCG relative to CG administration (acetaldehyde; rats given disulfiram and ethanol, oral CbG (Group B) vs CG (Group A), urine collected over 24 hours, LC/MS): 4.25 times greater
oral bioavailability (in words) (acetaldehyde; rats): more orally bioavailable than CG
BTCG excreted in urine (isoamyl aldehyde; Group A: cyanamide, isoamyl alcohol and CbG): excreted BTCG in the urine, albeit minimally
condition of animals (isoamyl aldehyde; Group A: rats receiving cyanamide, isoamyl alcohol and CbG, group without CbG was comatose (3 of 7) with one death): normal although hypoactive
BTCG excreted in urine (isoamyl aldehyde; Group C: isoamyl alcohol and CbG, no cyanamide): no BTCG could be detected in urine
condition of animals (isoamyl aldehyde; Group C: rats receiving isoamyl alcohol and CbG, no cyanamide): normal but more active
urinary excretion of BTCG compared to MTCG of the first study (isoamyl aldehyde; cyanamide, CbG, isoamyl alcohol vs disulfiram, CbG, ethanol (nanograms of BTCG vs. micrograms of MTCG)): more than 3 orders of magnitude lower

N[C@@H](CS)C(=O)O [L-cysteine]
MTCA in urine after ethanol and L-cysteine ([1]; rats administered ethanol and L-cysteine): could not find MTCA in the urine

CC1NC(C(=O)O)CS1 (centres unmarked) [MTCA, 2-methylthiazolidine-4 carboxylic acid]
metabolic fate of radiolabel ([1]; rat, in vivo): most of the radiolabel appeared as expired ^14CO2
MTCA in urine after administration of MTCA ([1]; rats, MTCA 400 mg/kg): no MTCA in the urine

CC1NC(C(=O)NCC(=O)O)CS1 (centres unmarked) [MTCG, 2-methylthiazolidine-4-carbonylglycine]
stability in 0.1 N HCl [2]: stable
stability in biological fluids of rats, including urine [3]: stable
